Target: T1, HCV polymerase (Hepatitis C virus genotype 1b, UniProt P26663)
T1 construct: 2.5 pmoles (0.15 μg) HCV polymerase protein in a final volume of 75 μL
Test: HCV polymerase primer/template-directed transcription assay (32P-GTP incorporation, filter binding)
Format: biochemical
Conditions: @ 50 uM compound; given where IC50 was impractical to calculate; read-out: percent inhibition
Procedure, shortened: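 IC50s come from triplicate cpm, refit with an enzyme-concentration (30 nM) correction when under 200 nM. Reactions ran 30 min at 30° C in Tris pH 7.2 with MgCl2, 1 μM GTP spiked with α-32P-GTP, biotin-dG12 primer and poly(rC)300 template, with 1% DMSO. Incorporated label was collected on DE filtermats and counted.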

T1 sequence (P26663 2420-3010): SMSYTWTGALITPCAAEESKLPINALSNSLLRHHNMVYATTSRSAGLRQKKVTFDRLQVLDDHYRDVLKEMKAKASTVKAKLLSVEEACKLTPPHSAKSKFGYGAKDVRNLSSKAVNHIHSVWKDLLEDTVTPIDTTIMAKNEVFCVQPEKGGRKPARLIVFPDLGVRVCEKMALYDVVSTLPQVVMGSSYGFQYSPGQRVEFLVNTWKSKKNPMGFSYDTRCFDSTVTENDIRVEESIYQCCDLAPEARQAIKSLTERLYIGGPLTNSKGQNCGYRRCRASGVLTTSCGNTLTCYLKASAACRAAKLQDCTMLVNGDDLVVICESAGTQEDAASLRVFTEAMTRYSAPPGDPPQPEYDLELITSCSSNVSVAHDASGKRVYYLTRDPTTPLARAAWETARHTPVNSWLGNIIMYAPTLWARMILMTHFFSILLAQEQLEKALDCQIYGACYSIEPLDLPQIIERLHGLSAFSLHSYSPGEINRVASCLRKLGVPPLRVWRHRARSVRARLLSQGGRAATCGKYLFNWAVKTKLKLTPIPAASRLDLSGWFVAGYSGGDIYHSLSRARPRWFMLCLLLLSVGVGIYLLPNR

SMILES	inhibition at 50 µM [%]
O=C(O)CC(O)(CCNC(=O)CCc1ccco1)C1CCCC1 (centres unmarked) [H(5), 3-Cyclopentyl-5-(3-furan-2-yl-propionylamino)-3-hydroxy-pentanoic acid]	7
O=C1CC(=O)OC(CSc2ncccn2)(C2CCCC2)C1 (centres unmarked) [I(1), 6-cyclopentyl-6-[(pyrimidin-2-ylthio)methyl]dihydro-2H-pyran-2,4(3H)-dione]	27
O=C1CC(=O)OC(CSCc2ccco2)(C2CCCC2)C1 (centres unmarked) [I(2), 6-cyclopentyl-6-{[(2-furylmethyl)thio]methyl}dihydro-2H-pyran-2,4(3H)-dione]	22
CCOc1ccc2nc(SCC3(C4CCCC4)CC(=O)CC(=O)O3)sc2c1 (centres unmarked) [I(3), 6-cyclopentyl-6-{[(6-ethoxy-1,3-benzothiazol-2-yl)thio]methyl}dihydro-2H-pyran-2,4(3H)-dione]	-2
CC(C)c1ccc(SCC2(C3CCCC3)CC(=O)CC(=O)O2)cc1 (centres unmarked) [I(4), 6-cyclopentyl-6-{[(4-isopropylphenyl)thio]methyl}dihydro-2H-pyran-2,4(3H)-dione]	44
